The values below come from patent US20060269924A1, “Modulation of telomere-initiated cell signaling” (TRUSTEES OF BOSTON UNIVERSITY, priority 2003, published 2006).

{P} = phosphate

In series [1] the test system is Jurkat cells. Kind of series: FACS analysis of propidium iodide stained Jurkat cells (cell cycle, sub-G0/G1 apoptosis). The series is classed as cell-based, human. Here is the method: FIGS. 1A-1H show FACS analysis of propidium iodide stained Jurkat cells (immortalized T lymphocytes), treated with diluent (FIGS. 1A and 1E); 40 μM 11mer-1 pGTTAGGGTTAG (SEQ ID NO: 2) (FIGS. 1B and 1F); 40 μM 11mer-2 pCTAACCCTAAC (SEQ ID NO: 3) (FIGS. 1C and […]); 40 μM 11mer-3 pGATCGATCGAT (SEQ ID NO: 4) (FIGS. 1D and 1H). Jurkat cells were treated with the stated reagents for 48 hours before analysis (FIGS. 1A-1D) or 72 hours (FIGS. 1E-1H).
FIGS. 2A-2F are profiles showing the results of fluorescence activated cell sorting, for the following additions to the cells: FIG. 2A, diluent; FIG. 2B, 0.4 μM 11mer-1; FIG. 2C, 0.4 μM 11mer-1-S; FIG. 2D, diluent; FIG. 2E, 40 μM 11mer-1; FIG. 2F, 40 μM 11 mer-1-S.
Oligonucleotides homologous to the telomere overhang repeat sequence (TTAGGG; SEQ ID NO: 1), sequence (11mer-1: pGTTAGGGTTAG; SEQ ID NO: 2), complementary to this sequence (11mer-2: pCTAACCCTAAC; SEQ ID NO: 3) and unrelated to the telomere sequence (11mer-3: pGATCGATCGAT; SEQ ID NO: 4) were added to cultures of Jurkat cells, a line of human T cells reported to undergo apoptosis in response to telomere disruption. Within′ 48 hours, 50% of the cells treated with 40 μM of SEQ ID NO: 5 had accumulated in the S phase, compared to 25-30% for control cells (p<0.0003, non-paired t-test; see FIGS. 1A-1D), and by 72 hours, 13% of these cells were apoptotic as determined by a sub-G0/G1 DNA content, compared to 2-3% of controls (p<0.007, non-paired t-test; see FIGS. 1E-1H). At 96 hours, 20±3% of the 11mer-1 treated cells were apoptotic compared with 3-5% of controls (p<0.0001, non-paired t-test). To exclude preferential uptake of the 11mer-1 as an explanation of its singular effects, Jurkat cells were treated with oligonucleotides labeled on the 3′ end with fluorescein phosphoramidite, then subjected to confocal-microscopy and FACS analysis. The fluorescence intensity of the cells was the same after all treatments at 4 hours and 24 hours.
Cultures of Jurkat human T cells were treated with either diluent, 11mer-1 ([…]) or the phosphorothioate 11mer-1 (11mer-1-S) for 96 hours, then collected and processed for FACS analysis. Two concentrations of the oligonucleotides were tested, 0.4 μM (FIGS. 2A-2C) and 40 μM (FIGS. 2D-2F).
On the technique in general: In flow cytometry, cells or beads pass a laser one at a time.

Series [2] relates to S91 mouse melanoma cells. Kind of series: Melanin content of S91 melanoma cells. Particulars: 40 μM, 6 days. The series is classed as cell-based. The procedure:
Cultures of S91 mouse melanoma cells (100,000 cells/38 cm^2) were treated with 100 μM pTpT or phosphorothioate pTpT (pTspT) (FIG. 4) or 40 μM 11mer-1 or the phosphorothioate 11mer-1 (11mer-1-S) (FIG. 5) for 6 days and were then collected, counted and assayed for melanin content.
Duplicate cultures of S91 cells (100,000 cells/39 cm^2) were either sham-irradiated or irradiated with 5 mJ/cm^2 solar-simulated light from a 1 kW xenon arc solar-simulator (XMN 1000-21, Optical Radiation, Azuza, Calif.) metered at 285±5 nm using a research radiometer (model IL1700A, International Light, Newburyport, Mass.). Two sham-irradiated plates were then supplemented with 100 μM pTspT and two irradiated cultures were similarly treated with pTspT. After one week, cells were collected, counted and analyzed for melanin content by dissolving the cell pellets in 1 N NaOH and measuring the optical density at 475 nm. […] However, this response was blocked by the addition of pTspT (FIG. 6). In addition, the constitutive pigmentation of these cells was reduced by the pTspT in the sham-irradiated cultures, similar to the data presented in FIGS. 4 and 5.

Series [3] concerns phospho-p53 serine 15, phospho-p95 serine 343. Kind of series: T-oligo response in fibroblasts with Mre11 siRNA knockdown, Western blot and densitometry. Particulars: fibroblasts with significantly reduced MRE11 levels (Mre11 siRNA), 48 hours. It is filed as cell-based, human. Here is the method: Normal human neonatal fibroblasts were treated with either 10 pmoles Mre11 siRNA or 10 pmoles control (no homology found in expressed human sequences). Cultures dishes were approximately 60% confluent on the day of siRNA transfection. Transfections were carried out using Lipofectamine 2000 (Invitrogen, Carlsbad, Calif.) following the protocol supplied by the manufacturer. The transfection cocktail was applied to the cells for 5 hours and then replaced with fresh medium alone. The next day, the transfection protocol was repeated. The following day, duplicate cultures were treated with the T-oligo or with diluent alone as a negative control. Cells were then collected 48 hours later and the protein analyzed by Western blot using antibodies specific for phospho-p95 serine 343 (Cell Signaling Technology, Beverly, Mass.), Mre11 (GeneTex, San Antonio, Tex.), phosphor-p53 serine 15 (Cell Signaling Technology) and total p53 (Oncogene, San Diego, Calif.) (FIG. 9). Hela cell lysate was used as a positive control for Mre11. Normal fibroblasts exposed to 10 Gy IR or sham irradiated and collected after one hour served as positive controls for p53 and p95/Nbs1 phosphorylation. The autoradiographs were analyzed by densitometry and the values for the T-oligo samples are expressed relative to the values for the diluent-treated samples (FIG. 10 and FIG. 11).
For orientation: Immunoblotting shows a protein as a band on a membrane.

Series [4] has as its system HT-1080 human fibrosarcoma cells. As to the kind of experiment: Clonogenic assay. The series is classed as cell-based. The conditions noted are these: HT-1080, 40 μM for one week, then replated 2 weeks without treatment. Here is the method: Cells were treated with diluent, 40 μM T-oligo or complementary oligo for one week, and then assayed. FIG. 15a: Appearance of stained dishes. FIG. 15b: Quantification of clonogenic capacity. Colonies of triplicate cultures were counted and plotted as percentage of diluent treated control.
Human fibrosarcoma cells were treated with diluent alone, 40 μM T-oligo or 40 μM complementary oligo for one week and were then trypsinized and counted. 300 cells were seeded into 60 mm culture dishes in triplicate and then incubated in complete medium for 2 weeks with medium changed twice per week. Subsequently, the cells were fixed for 5 min in 100% methanol. The methanol was then removed and the culture dishes were rinsed briefly with water. The colonies were stained for 10 min in 4% (w/v) methylene blue solution in PBS, washed once again with water, and then counted.
To determine the long-term effect of T-oligo treatment on cell growth, HT-1080 human fibrosarcoma cells were treated with either diluent alone, 40 μM T-oligo or 40 μM complementary control oligo for one week and then an equal number of cells were replated and medium was changed twice per week for 2 weeks with no further treatment, and then stained with methylene blue (FIG. 15a).

As for “pGTTAGGGTTAG (DNA, 5' {P}, backbone not given here; listed as Homo sapiens) [Oligonucleotide 11mer-1]”, the “effect on exponentially growing cell cycle profile” value in series [1] (0.4 μM, 96 hours) is reported as “neither of the oligonucleotides affected”. For the same substance, in series [1] (40 μM, 48 hours), the “cells accumulated in the S phase” value came out at 50%. In series [1] (40 μM, 72 hours), the “apoptotic cells (sub-G0/G1 DNA content)” value is given as 13%. Moreover, in series [1] (40 μM, 96 hours), the “apoptosis (sub-G0/G1 peak)” value is “induced extensive apoptosis”. In series [1] (96 hours), this substance gave an apoptotic cells of 20±3%. Moreover, in series [2], the “melanogenesis (melanin content)” value is “stimulated melanogenesis”. Besides, in series [3], the “phospho-p53 response to T-oligo” value is recorded as “reduced” and the “phospho-p95/Nbs1 response to T-oligo” value is reported as “absent”. Also, in series [4], the clonogenic capacity is listed as 5.7±1.9 % of diluent treated control.
